According to patent US5219741A, “Method of making L-proline using an N-acyl-L-protine acylase” (priority 1990, dated 1993):
Where “and” joins values, the source holds several entries; their conditions need not be identical. Equal values may be shown once. Entries after “also recorded” stand apart in the source; their conditions may differ. Where a name gives a salt, the structure may show the parent alone. Read-outs that look alike come from different tables or passages of the source. Where a SMILES comes first, the peptide text is derived from it. The star is where a group is joined. Cbz = O=C(OCc1ccccc1)*

Experiments:
[1] = system: N-acyl-L-proline acylase; test: Substrate specificity: hydrolysis of N-acyl amino acids and proline derivatives; assay type: biochemical, Comamonas testosteroni DSM 5416; conditions: for Rel. activity (%) / Relative Activity (%): N-acetyl-L-proline = 100%; for Relative Activity (%): proline derivatives
Protocol: The activity of acylase was determined with various N-acetyl-L-amino acids and N-chloroacetyl-L-amino acids in a reaction batch with the following composition:
The reaction temperature was 30° C. and the incubation time 15 minutes to 24 hours. 0.2 ml samples of the reaction batch in each instance were mixed at different times with 0.2 ml 10% (w/v) trichloroacetic acid and the denatured protein centrifuged off for 10 minutes at 11,000 rpms in a table centrifuge. The supernatant was diluted with a 0.1M Na citrate buffer pH 2.2 with 25% (v/v) 2.2-thiodiethanol and 0.1% (v/v) phenol 1:5 and 1:50 respectively. The amino acids released were quantitatively detected by an amino-acid analyzer LC 5001 of the firm Biotronic, Maintal, Federal Republic of Germany. In Table 16, the substrates marked with * and the corresponding products were quantified by means of HPLC.
The activity of the acylase was determined with various proline derivatives as under a).

[2] = system: N-acyl-L-proline acylase; assay type: biochemical, Comamonas testosteroni DSM 5416
Protocol: The enzymatic reaction was interrupted by pipetting 50 μl of the enzyme sample into 1.25 ml 100% acetic acid. Subsequently, 0.45 ml 0.1M tris-HCl buffer pH 7.0 and 1.25 ml ninhydrin reagent (3 g ninhydrin dissolved by heating in a mixture of 60 ml 100% acetic acid and 40 ml 6M phosphoric acid) were added. The ninhydrin reagent was freshly prepared daily. The test tubes were loosely closed with screw-on caps, incubated 30 minutes at 100° C. and subsequently cooled down in an ice bath.
The L-proline, liberated by the enzymatic hydrolysis, forms a red dye with ninhydrin at 100° C. The absorption of the red dye was measured in a spectrophotometer at 480 nm relative to a control batch without crude extract (=substrate blank). The concentration of the L-proline produced was determined using a straight calibration line with L-proline in a range of 5 to 100 nmoles per 50 μl specimen. The enzyme activity was indicated in international units; thus, one unit (U) corresponded to an amount of 1 μmole L-proline produced per minute.
The influence of various chemical agents as well as metal cations and anions on the reaction speed of the hydrolytic splitting of N-acetyl-L-proline was determined at 30° C. in a reaction batch with the following composition: […]
The enzyme was pre-incubated for 10 minutes at 30° C. with the compound before the addition of substrate to start the reaction.
The enzyme was pre-incubated for 10 minutes at 30° C. with the agent before the substrate was added to start the reaction.
The enzyme was pre-incubated 10 minutes at 30° C. with the agent before the substrate was added to start the reaction. The concentration of the anions was 10 mM in each instance.

[3] = 20 mM substrate 1.0 ml in 2.0 ml batch, 30° C., pH 7.0, amino-acid analyzer
[4] = substrate concentration 50 mM, quantified by HPLC
[5] = chemical agent 1 mM, 10 min pre-incubation at 30° C., no agent = 100
[6] = chemical agent 10 mM, 10 min pre-incubation at 30° C., no agent = 100

## CC(=O)NC(CO)C(=O)O (racemic) [Ac--D,L--Ser]
[1]; [3]
  Rel. activity (%): 0.2%

## O=C(O)C1CCCCN1C(=O)CCl (racemic) [ClAc--D,L-pipecolic acid, N-chloroacetyl-D,L-pipecolic acid]
[1]
  Hydrolysis by the acylase (in words): reacted at a distinctly lower speed
[1]; [4]
  Rel. activity (%): 16%

## O=C(O)C1SCCN1C(=O)CCl (racemic) [ClAc--D,L-thiazolidine-2-carboxylic acid, N-chloroacetyl-DL-thiazolidine-2-carboxylic acid]
[1]
  Hydrolysis by the acylase (in words): hydrolyzed especially well
[1]; [4]
  Rel. activity (%): 202%

## O[C@H](CS)[C@H](O)CS (racemic) [Dithiothreitol]
[2]; [5]
  Activity (%): 129%
[2]; [6]
  Activity (%): 48%

## c1ccc(-c2ccccn2)nc1 [2,2-bipyridine]
[2]; [5]
  Activity (%): 102%
[2]; [6]
  Activity (%): 66%

## OCCS [2-mercaptoethanol]
[2]; chemical agent 14 mM, 10 min pre-incubation at 30° C.
  Activity (%): 14%
[2]; native enzyme
  Influence on the acylase activity (in words): inhibiting action; also recorded: significantly inhibit

## O=C([O-])c1cc[c]([Hg][Cl])cc1 [4-chloromercuribenzoate]
[2]; [5]
  Activity (%): 85%
[2]; [6]
  Activity (%): 48%
[2]; native enzyme
  Influence on the acylase activity (in words): inhibiting action; also recorded: significantly inhibit

## O=C([O-])c1cc[c]([Hg][OH])cc1 [4-hydroxymercuribenzoate]
[2]; [5]
  Activity (%): 88%
[2]; [6]
  Activity (%): 41%
[2]; native enzyme
  Influence on the acylase activity (in words): inhibiting action; also recorded: significantly inhibit

## CC(=O)N[C@@H](C)C(=O)N1CCC[C@H]1C(=O)O [Ac--L--Ala--L--Pro--OH] (Ac-Ala-Pro-OH)
[1]; 30° C., pH 7.0
  Relative Activity (%): 0%

## CC(=O)N[C@@H](CS)C(=O)O [Ac--L--Cys]
[1]; [3]
  Rel. activity (%): 0%

## CC(=O)N[C@@H](Cc1ccc(O)cc1)C(=O)O [Ac--L--Tyr]
[1]; [3]
  Rel. activity (%): 0%

## CC(=O)N[C@H](C(=O)O)C(C)C [Ac--L--Val]
[1]; [3]
  Rel. activity (%): 0.2%

## CC(=O)N1CC[C@H]1C(=O)O [Ac--L-azetidine-2-carboxylic acid]
[1]; quantified by HPLC
  Rel. activity (%): 0%

## CC(C)(C)OC(=O)N1CCC[C@H]1C(=O)O [Boc--L--Pro--OH]
[1]; 30° C., pH 7.0
  Relative Activity (%): 0%

## O=C(CCl)NC1(C(=O)O)CCCCC1 [ClAc--D,L-1-aminocyclohexanoic acid]
[1]; [3]
  Rel. activity (%): 0%

## CC[C@H](C)[C@H](NC(=O)CCl)C(=O)O [ClAc--L--Ile]
[1]; [3]
  Rel. activity (%): 0.5%

## O=C(O)[C@@H]1Cc2ccccc2N1C(=O)CCl [ClAc--L-indolin-2-carboxylic acid]
[1]; quantified by HPLC
  Rel. activity (%): 0%

## O=C(O)CN(CCN(CC(=O)O)CC(=O)O)CC(=O)O [EDTA]
[2]
  Activity (%): 101% and 99%

## N[C@@H](CCC(=O)N[C@@H](CS)C(=O)NCC(=O)O)C(=O)O [Glutathione]
[2]
  Activity (%): 116% and 135%

## C[C@H](N)C(=O)N1CCC[C@H]1C(=O)O [H--L Ala--L--Pro--OH] (H-Ala-Pro-OH)
[1]; 30° C., pH 7.0
  Relative Activity (%): 0%

## O=C(O)CNC(=O)[C@@H]1CCCN1 [H--L--Pro--Gly--OH] (H-Pro-Gly-OH)
[1]; 30° C., pH 7.0
  Relative Activity (%): 0%

## NC(=O)[C@@H]1CCCN1 [H--L--Pro--NH2]
[1]; 30° C., pH 7.0
  Relative Activity (%): 0%

## NC(=O)CI [Iodoacetamide]
[2]; [5]
  Activity (%): 104%
[2]; [6]
  Activity (%): 101%

## O=C(O)CI [Iodoacetate]
[2]
  Activity (%): 97% and 77%

## O=[N+]([O-])[O-].[K+] [KNO3]
[2]; anion 10 mM, no agent = 100
  Activity (%): 96%

## CC(=O)N1CC(O)C[C@H]1C(=O)O (stereo partly drawn) [N-acetyl-L-4-hydroxyproline]
[1]
  Hydrolysis by the acylase (in words): hydrolyzes
[1]; 30° C., pH 7.0
  Relative Activity (%): 10%

## COC(=O)[C@@H]1CCCN1C(C)=O [N-acetyl-L-proline methyl ester]
[1]
  Hydrolysis by the acylase (in words): not hydrolyzed
[1]; 30° C., pH 7.0
  Relative Activity (%): 0%

## CC(=O)N1CCC[C@H]1C(N)=O [N-acetyl-L-prolineamide]
[1]
  Hydrolysis by the acylase (in words): not hydrolyzed
[1]; 30° C., pH 7.0
  Relative Activity (%): 0%

## O=C(NCC(=O)N1CCC[C@H]1C(=O)O)OCc1ccccc1 [N-benzyloxycarbonyl-glycyl-L-proline] (Cbz-Gly-Pro-OH)
[1]
  Hydrolysis by the acylase (in words): hydrolyzes
[1]; 30° C., pH 7.0
  Relative Activity (%): 11%

## CCCC(=O)N1CCC[C@H]1C(=O)O [N-butyryl-L-proline]
[1]
  Hydrolysis by the acylase (in words): hydrolyzes
[1]; 30° C., pH 7.0
  Relative Activity (%): 14%

## CCCCCC(=O)N1CCC[C@H]1C(=O)O [N-caproyl-L-proline]
[1]
  Hydrolysis by the acylase (in words): hydrolyzes
[1]; 30° C., pH 7.0
  Relative Activity (%): 9%

## O=C(O)[C@@H]1CCCCN1C(=O)CCl [N-chloroacetyl-L-pipecolic acid]
[1]
  Hydrolysis by the acylase (in words): hydrolyzes

## O=C(O)[C@@H]1CCCN1C(=O)CCl [N-chloroacetyl-L-proline]
[1]
  Hydrolysis by the acylase (in words): hydrolyzes; also recorded: hydrolyzed especially well
  Hydrolysis rate, times more rapid than N-acetyl-L-proline: about 3.6 times
[1]; [3]
  Rel. activity (%): 362%
[1]; 30° C., pH 7.0
  Relative Activity (%): 362%

## O=C(O)[C@@H]1SCCN1C(=O)CCl [N-chloroacetyl-L-thiazolidine-2-carboxylic acid]
[1]
  Hydrolysis by the acylase (in words): hydrolyzes

## O=C(O)[C@@H]1CSCN1C(=O)CCl [N-chloroacetyl-L-thiazolidine-4-carboxylic acid]
[1]
  Hydrolysis by the acylase (in words): hydrolyzes; also recorded: hydrolyzed especially well
[1]; [3]
  Rel. activity (%): 462%

## O=CN1CCC[C@H]1C(=O)O [N-formyl-L-proline]
[1]
  Hydrolysis by the acylase (in words): hydrolyzes
[1]; 30° C., pH 7.0
  Relative Activity (%): 18%

## CCC(=O)N1CCC[C@H]1C(=O)O [N-propionyl-L-proline]
[1]
  Hydrolysis by the acylase (in words): hydrolyzes
[1]; 30° C., pH 7.0
  Relative Activity (%): 29%

## CCCCC(=O)N1CCC[C@H]1C(=O)O [N-valeryl-L-proline]
[1]
  Hydrolysis by the acylase (in words): hydrolyzes
[1]; 30° C., pH 7.0
  Relative Activity (%): 15%

## O=C(O)O [Na2 CO3]
[2]
  Activity (%): 75%
  Influence on the acylase activity (in words): slightly inhibited

## O=S(=O)([O-])[O-].[Na+].[Na+] [Na2 SO4]
[2]; anion 10 mM, no agent = 100
  Activity (%): 96%

## O=C(O)CC(O)(CC(=O)O)C(=O)O [Na citrate]
[2]; [5]
  Activity (%): 102%
[2]; [6]
  Activity (%): 102%

## [Cl-].[Na+] [NaCl]
[2]
  Activity (%): 99%

## O=P([O-])(O)O.[Na+] [NaH2 PO4]
[2]
  Inhibiting mechanism: non-competitive
[2]; anion 10 mM, no agent = 100
  Activity (%): 6%
[2]; native enzyme, listed as PO4^3-
  Influence on the acylase activity (in words): inhibiting action
[2]; native enzyme, listed as Phosphate
  Influence on the acylase activity (in words): inhibited
[2]; native enzyme, listed as phosphate
  Influence on the acylase activity (in words): sharply inhibited

## O=N[O-].[Na+] [NaNO2]
[2]
  Activity (%): 71%
  Influence on the acylase activity (in words): slightly inhibited

## O=S(=O)(F)Cc1ccccc1 [PMSF]
[2]; chemical agent 0.1 mM, 10 min pre-incubation at 30° C.
  Activity (%): 104%
[2]; [5]
  Activity (%): 130%

## NNC(N)=O [Semicarbazide]
[2]; [5]
  Activity (%): 109%
[2]; [6]
  Activity (%): 95%

## O=C(O)[C@H]1CCCN1C(=O)OCc1ccccc1 [Z--D--Pro--OH]
[1]; 30° C., pH 7.0
  Relative Activity (%): 0%

## C[C@H](NC(=O)[C@@H]1CCCN1C(=O)OCc1ccccc1)C(=O)O [Z--L--Pro--L--Ala--OH] (Cbz-Pro-Ala-OH)
[1]; 30° C., pH 7.0
  Relative Activity (%): 0%

## NC(=O)[C@@H]1CCCN1C(=O)OCc1ccccc1 [Z--L--Pro--NH2]
[1]; 30° C., pH 7.0
  Relative Activity (%): 0%

## O=C(O)[C@@H]1CCCN1C(=O)OCc1ccccc1 [Z--L--Pro--OH]
[1]; 30° C., pH 7.0
  Relative Activity (%): 0%

## NCC(=O)N1CCC[C@H]1C(=O)O [glycyl-L-proline] (H-Gly-Pro-OH)
[1]
  Hydrolysis by the acylase (in words): hydrolyzes
[1]; 30° C., pH 7.0
  Relative Activity (%): 4%
